According to ChEMBL document CHEMBL1201862, “PubChem BioAssay data set” (2004):
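Interpolation was linear, between the two tested concentrations surrounding the appropriate level; five concentrations were tested over 48 hours in 96-well plates. GI50 marks 50% less growth.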 The source made the active and inactive calls. Cut-off read from the data, not from the text of the source: active = GI50 up to about 1.1 µM and inactive = higher.

Columns and labels:
Experiment in all cases: inhibition of tumour cell growth, NCI panel, 48 h
LOX IMVI = test system: LOX IMVI
NCI-H226 = test system: NCI-H226
M14 = test system: M14
ACHN = test system: ACHN
SNB-19 = test system: SNB-19
HOP-62 = test system: HOP-62
RPMI-8226 = test system: RPMI-8226
HCT-15 = test system: HCT-15
SK-OV-3 = test system: SK-OV-3
SNB-75 = test system: SNB-75
A498 = test system: A498
UACC-62 = test system: UACC-62
SK-MEL-28 = test system: SK-MEL-28
SF-295 = test system: SF-295
HL-60 = test system: HL-60
U-251 = test system: U-251
COLO 205 = test system: COLO 205
CCRF-CEM = test system: CCRF-CEM
CAKI-1 = test system: CAKI-1
SR = test system: SR

Row | Compound | GI50 (LOX IMVI) | GI50 (NCI-H226) | GI50 (M14) | GI50 (ACHN) | GI50 (SNB-19) | GI50 (HOP-62) | GI50 (RPMI-8226) | GI50 (HCT-15) [µM] | GI50 (SK-OV-3) | GI50 (SNB-75) | GI50 (A498) | GI50 (UACC-62) | GI50 (SK-MEL-28) | GI50 (SF-295) | GI50 (HL-60) | GI50 (U-251) | GI50 (COLO 205) | GI50 (CCRF-CEM) | GI50 (CAKI-1) | GI50 (SR)
1 | C=C(C)CCN[Si](c1ccccc1)(c1ccccc1)C(C)(C)C | 17.8 µM (inactive) | 12.1 µM (inactive) | 18.9 µM (inactive) | 26 µM (inactive) | 18.4 µM (inactive) | 17.1 µM (inactive) | 24 µM (inactive) | 21.9 | 32.3 µM (inactive) | 28.5 µM (inactive) | 28.9 µM (inactive) | 17 µM (inactive) | 20.3 µM (inactive) | 19.3 µM (inactive) | 20.1 µM (inactive) | 15.4 µM (inactive) | 18.5 µM (inactive) | 25.8 µM (inactive) |  | 
2 | N=C(N)N/N=C/c1ccc(O)c(C(=O)O)c1 | > 100 µM (inactive) | > 100 µM (inactive) | > 100 µM (inactive) | > 100 µM (inactive) | > 100 µM (inactive) | > 100 µM (inactive) | > 100 µM (inactive) | > 100 | > 100 µM (inactive) | 3.22 µM (inactive) | > 100 µM (inactive) | > 100 µM (inactive) | > 100 µM (inactive) | > 100 µM (inactive) |  | > 100 µM (inactive) | > 100 µM (inactive) | > 100 µM (inactive) | > 100 µM (inactive) | > 100 µM (inactive)
3 | O=C1ON(Cc2ccccc2)C(c2ccccc2)N1c1ccccc1 (centres undefined) | > 100 µM (inactive) | 99.1 µM (inactive) |  |  | > 100 µM (inactive) | > 100 µM (inactive) | > 100 µM (inactive) | > 100 | > 100 µM (inactive) | 62.7 µM (inactive) | > 100 µM (inactive) | 98.9 µM (inactive) | > 100 µM (inactive) | > 64 µM (inactive) | > 70.5 µM (inactive) | > 100 µM (inactive) | > 100 µM (inactive) | > 100 µM (inactive) |  | 
4 | Cc1ccc(Nc2n[nH]c(NS(=O)(=O)c3cc(C(=O)Nc4ccc(Cl)cc4)c(Cl)cc3S)n2)cc1 | 48.4 µM (inactive) |  | > 100 µM (inactive) | > 100 µM (inactive) | > 100 µM (inactive) | > 100 µM (inactive) | > 100 µM (inactive) | > 100 | > 100 µM (inactive) | > 100 µM (inactive) |  | > 100 µM (inactive) | > 100 µM (inactive) | > 100 µM (inactive) | 33.7 µM (inactive) | 54.8 µM (inactive) | > 100 µM (inactive) | > 100 µM (inactive) | > 100 µM (inactive) | > 100 µM (inactive)
5 | CCOC(=O)C(Cc1ccccc1)NC(=O)OC(C)(C)C (centres undefined) | > 100 µM (inactive) |  | > 100 µM (inactive) | > 100 µM (inactive) | > 100 µM (inactive) | > 100 µM (inactive) |  | > 100 | > 100 µM (inactive) | > 100 µM (inactive) | > 100 µM (inactive) | > 100 µM (inactive) | > 100 µM (inactive) | > 100 µM (inactive) | > 100 µM (inactive) | > 100 µM (inactive) | > 100 µM (inactive) | > 100 µM (inactive) | > 10 µM (inactive) | 
6 | CSc1cc(Cl)c(C)cc1S(=O)(=O)NC(=O)NNc1ccc(F)c(Cl)c1 | > 100 µM (inactive) | > 100 µM (inactive) | > 100 µM (inactive) | > 100 µM (inactive) | > 100 µM (inactive) | > 100 µM (inactive) |  | > 100 | > 100 µM (inactive) | > 100 µM (inactive) | > 100 µM (inactive) |  | > 100 µM (inactive) | > 100 µM (inactive) |  | > 100 µM (inactive) | > 100 µM (inactive) | 54.3 µM (inactive) | > 100 µM (inactive) | 61 µM (inactive)
7 | O=NN1C(c2ccccc2)CCCC1c1ccccc1 (centres undefined) | 74.8 µM (inactive) | > 100 µM (inactive) |  |  | > 100 µM (inactive) | > 100 µM (inactive) | 21.7 µM (inactive) | 62.4 | 31.9 µM (inactive) | 28.3 µM (inactive) | 15.1 µM (inactive) | > 94.8 µM (inactive) | > 100 µM (inactive) | 22.1 µM (inactive) | 26.8 µM (inactive) | 75.5 µM (inactive) | 50.8 µM (inactive) | 52.1 µM (inactive) | 97.7 µM (inactive) | 
8 | O=C1C=CC2=[N+]([O-])C(c3ccccc3)(c3ccccc3)/C(=N\c3ccccc3)C2=C1 | 1.8 µM (inactive) | 8.89 µM (inactive) | 1.97 µM (inactive) | 1.74 µM (inactive) | 17.2 µM (inactive) | 14.6 µM (inactive) | 2.96 µM (inactive) | 2.03 | 17.8 µM (inactive) | 3.22 µM (inactive) |  | 2.1 µM (inactive) |  | 14.5 µM (inactive) | 0.349 µM (active) | 2.5 µM (inactive) |  | 0.407 µM (active) | 2.44 µM (inactive) | 0.269 µM (active)
